# Legend:
# [1] = clinical drug interaction studies, effects of other drugs on belumosudil; type: in vivo, human; settings: healthy subjects
# cGVHD = experiment: Example 1: corticosteroid and calcineurin inhibitor dose change; type: in vivo, human
# Method: Progression was defined per the 2014 NIH cGVHD Consensus Criteria. Long-term follow-up was conducted every 8 weeks until study closeout. […] Screening was conducted within 28 days of the first study dose. Response was initially assessed after two cycles; however, this was amended to evaluate response on day 1 of each cycle, starting at cycle 2 day 1.
# Change from Baseline in Corticosteroids Dose. An EOT visit was performed within 3 days after the participant's last dose of study drug. Baseline value was defined as valid and last non-missing value obtained within 28 days prior to participant receiving first study medication. The mITT population was analyzed, with the ‘overall number of participants analyzed’=participants with available data for this outcome measure.
# Change from Baseline in Calcineurin Inhibitor (CNI). Calcineurin inhibitors included systemic tacrolimus and cyclosporine. Number of participants who took CNI at Baseline and had reduction and discontinuation in CNI use as compared to Baseline during the study are reported in this outcome measure. EOT visit was performed within 3 days after the participant's last dose of study drug. Baseline value was defined as valid and last non-missing value obtained within 28 days prior to participant receiving first study medication.
# cGVHD symptoms = experiment: Example 1: symptom activity by cGVHD Activity Assessment participant self-report; type: in vivo, human
# From the text: Number of Participants With Maximal Improvement From Baseline in Symptom Activity by cGVHD Activity Assessment Participant Self-Report. cGVHD symptom severity was self-reported by participants. Participants were asked to rate their disease symptom severity over the last week on the following questions: skin itching at its worst, moth dryness at its worst, mouth pain at its worst, mouth sensitivity at its worst, main compliant on eyes, symptom severity on eyes. The severity rating was done on a 0 to 10-point numeric rating scare, where score 0 indicated ‘not at all severe cGVHD symptoms’ and score 10 indicated ‘most severe cGVHD symptoms possible’. EOT visit was performed within 3 days after the participant's last dose of study drug. Baseline value was defined as valid and last non-missing value obtained within 28 days prior to participant receiving first study medication. […] Analysis was performed on mITT population.
# human serum albumin = human serum albumin (Homo sapiens, UniProt P02768); experiment: protein binding in vitro; type: in vitro ADME
# Chain of human serum albumin (P02768 25-609): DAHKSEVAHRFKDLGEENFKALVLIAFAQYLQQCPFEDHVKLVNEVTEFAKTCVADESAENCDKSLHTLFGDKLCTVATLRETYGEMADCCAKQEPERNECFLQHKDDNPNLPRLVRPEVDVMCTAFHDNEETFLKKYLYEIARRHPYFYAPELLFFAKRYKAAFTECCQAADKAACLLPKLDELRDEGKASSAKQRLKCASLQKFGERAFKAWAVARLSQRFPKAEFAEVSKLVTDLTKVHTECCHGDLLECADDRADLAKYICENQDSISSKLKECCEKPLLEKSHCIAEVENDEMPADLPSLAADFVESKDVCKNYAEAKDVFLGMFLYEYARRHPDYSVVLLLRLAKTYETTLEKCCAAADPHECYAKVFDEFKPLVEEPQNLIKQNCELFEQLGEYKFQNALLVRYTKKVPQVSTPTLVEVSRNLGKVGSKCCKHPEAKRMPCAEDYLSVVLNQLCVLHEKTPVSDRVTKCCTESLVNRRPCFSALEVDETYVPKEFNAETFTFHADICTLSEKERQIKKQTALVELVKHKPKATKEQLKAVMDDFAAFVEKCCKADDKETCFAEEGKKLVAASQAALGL
# P-gp = P-gp (Homo sapiens, UniProt P08183); experiment: transporter substrate in vitro; type: in vitro ADME
# Chain of P-gp (P08183 whole entry): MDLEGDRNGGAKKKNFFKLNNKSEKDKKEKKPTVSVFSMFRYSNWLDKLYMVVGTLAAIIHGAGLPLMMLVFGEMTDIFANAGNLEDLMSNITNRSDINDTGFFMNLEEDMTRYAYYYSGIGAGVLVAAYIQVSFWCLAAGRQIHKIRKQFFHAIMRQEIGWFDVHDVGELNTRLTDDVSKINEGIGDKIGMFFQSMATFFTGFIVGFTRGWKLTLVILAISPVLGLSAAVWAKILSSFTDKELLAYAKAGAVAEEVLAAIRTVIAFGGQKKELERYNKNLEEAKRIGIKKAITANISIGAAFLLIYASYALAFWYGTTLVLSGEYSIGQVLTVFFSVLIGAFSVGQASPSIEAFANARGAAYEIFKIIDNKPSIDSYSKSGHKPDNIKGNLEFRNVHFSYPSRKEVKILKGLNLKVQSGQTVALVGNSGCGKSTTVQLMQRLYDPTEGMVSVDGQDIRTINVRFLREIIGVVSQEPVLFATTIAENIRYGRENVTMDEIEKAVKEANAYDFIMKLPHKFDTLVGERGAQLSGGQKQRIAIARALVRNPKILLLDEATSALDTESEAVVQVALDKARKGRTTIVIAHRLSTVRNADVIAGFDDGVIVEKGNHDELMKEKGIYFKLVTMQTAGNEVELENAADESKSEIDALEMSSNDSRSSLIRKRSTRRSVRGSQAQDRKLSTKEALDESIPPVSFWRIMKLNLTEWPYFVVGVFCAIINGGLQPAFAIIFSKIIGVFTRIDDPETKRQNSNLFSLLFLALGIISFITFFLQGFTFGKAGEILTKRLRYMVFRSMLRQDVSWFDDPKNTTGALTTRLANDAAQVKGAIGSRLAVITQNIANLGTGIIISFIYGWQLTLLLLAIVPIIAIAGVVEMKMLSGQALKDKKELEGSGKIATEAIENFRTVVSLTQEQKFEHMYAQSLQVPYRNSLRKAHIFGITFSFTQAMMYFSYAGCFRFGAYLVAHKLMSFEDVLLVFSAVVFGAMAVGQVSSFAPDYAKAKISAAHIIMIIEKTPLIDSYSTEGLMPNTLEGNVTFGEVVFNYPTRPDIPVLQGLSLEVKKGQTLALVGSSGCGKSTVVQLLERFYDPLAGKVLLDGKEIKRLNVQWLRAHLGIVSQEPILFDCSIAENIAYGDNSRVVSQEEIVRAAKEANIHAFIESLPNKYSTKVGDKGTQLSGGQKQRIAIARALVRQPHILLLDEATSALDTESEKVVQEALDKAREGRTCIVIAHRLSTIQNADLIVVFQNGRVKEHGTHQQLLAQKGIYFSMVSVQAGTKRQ
# CYP1A2 = target: T1, CYP1A2 (Homo sapiens, UniProt P05177); experiment: enzyme inhibition in vitro; type: in vitro ADME
# T1 sequence (P05177 1-516): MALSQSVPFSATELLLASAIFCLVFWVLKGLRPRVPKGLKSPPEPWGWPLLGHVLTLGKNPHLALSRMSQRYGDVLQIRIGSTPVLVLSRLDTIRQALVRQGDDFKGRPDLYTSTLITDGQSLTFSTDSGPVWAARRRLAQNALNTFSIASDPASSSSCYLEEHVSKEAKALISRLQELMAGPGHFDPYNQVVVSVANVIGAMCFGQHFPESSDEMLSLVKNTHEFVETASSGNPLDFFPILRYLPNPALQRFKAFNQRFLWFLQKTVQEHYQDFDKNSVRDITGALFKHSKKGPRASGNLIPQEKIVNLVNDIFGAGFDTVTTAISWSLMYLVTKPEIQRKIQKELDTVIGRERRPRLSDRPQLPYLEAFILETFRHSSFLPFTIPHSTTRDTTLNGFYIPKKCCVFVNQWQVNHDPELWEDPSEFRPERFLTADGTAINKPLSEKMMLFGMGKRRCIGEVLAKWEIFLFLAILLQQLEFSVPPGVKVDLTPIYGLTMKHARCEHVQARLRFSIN
smiles,measurement,setting,value
"CC(C)NC(=O)COc1cccc(-c2nc(Nc3ccc4[nH]ncc4c3)c3ccccc3n2)c1 [Belumosudil, 2-{3-[4-(1H-indazol-5-ylamino)-2-quinazolinyl]phenoxy}-N-(propan-2-yl) acetamide]",decrease of belumosudil AUC with omeprazole,[1],47%
same,decrease of belumosudil AUC with rabeprazole,[1],80%
same,decrease of belumosudil AUC with rifampin,[1],72%
same,decrease of belumosudil Cmax with omeprazole,[1],68%
same,decrease of belumosudil Cmax with rabeprazole,[1],87%
same,decrease of belumosudil Cmax with rifampin,[1],59%
same,effect of itraconazole on belumosudil exposure,[1],no clinically meaningful effect
same,"Change From Baseline in Corticosteroids Dose, mean (SD)",cGVHD; Cohort 1 200 mg QD,−0.110 (0.101) milligrams per kilogram per day
same,"Participants who discontinued CNI, n (%)",cGVHD; Cohort 1 200 mg QD,0 (0%)
same,"Participants with reduction in CNI dose, n (%)",cGVHD; Cohort 1 200 mg QD,5 (83%)
same,"mean percent change in CS dose from baseline, nonresponder",cGVHD; Cohort 1 200 mg QD,−26%
same,"mean percent change in CS dose from baseline, overall",cGVHD; Cohort 1 200 mg QD,−50%
same,"mean percent change in CS dose from baseline, responder",cGVHD; Cohort 1 200 mg QD,−63%
same,"Change From Baseline in Corticosteroids Dose, mean (SD)",cGVHD; Cohort 2 200 mg BID,−0.111 (0.147) milligrams per kilogram per day
same,"Participants who discontinued CNI, n (%)",cGVHD; Cohort 2 200 mg BID,1 (17%)
same,"Participants with reduction in CNI dose, n (%)",cGVHD; Cohort 2 200 mg BID,5 (83%)
same,"mean percent change in CS dose from baseline, nonresponder",cGVHD; Cohort 2 200 mg BID,−37%
same,"mean percent change in CS dose from baseline, overall",cGVHD; Cohort 2 200 mg BID,−36%
same,"mean percent change in CS dose from baseline, responder",cGVHD; Cohort 2 200 mg BID,−36%
same,"Change From Baseline in Corticosteroids Dose, mean (SD)",cGVHD; Cohort 3 400 mg QD,−0.116 (0.152) milligrams per kilogram per day
same,"Participants who discontinued CNI, n (%)",cGVHD; Cohort 3 400 mg QD,3 (27%)
same,"Participants with reduction in CNI dose, n (%)",cGVHD; Cohort 3 400 mg QD,6 (55%)
same,"mean percent change in CS dose from baseline, nonresponder",cGVHD; Cohort 3 400 mg QD,−19%
same,"mean percent change in CS dose from baseline, overall",cGVHD; Cohort 3 400 mg QD,−47%
same,"mean percent change in CS dose from baseline, responder",cGVHD; Cohort 3 400 mg QD,−63%
same,median time to corticosteroid therapy discontinuation,cGVHD; Example 1,29 weeks
same,mean corticosteroid dose reduction,"cGVHD; Example 1, all patients",45%
same,mean corticosteroid dose reduction,"cGVHD; Example 1, nonresponders",26%
same,mean corticosteroid dose reduction,"cGVHD; Example 1, responders",55%
same,"mean percent change in CS dose from baseline, nonresponder","cGVHD; Total, N=54",−26%
same,"mean percent change in CS dose from baseline, overall","cGVHD; Total, N=54",−45%
same,"mean percent change in CS dose from baseline, responder","cGVHD; Total, N=54",−55%
same,"proportion with CS reduction, % (95% CI)","cGVHD; Total, N=54",67%
same,"self-reported symptom activity maximal improvement 0, participants (%)",cGVHD symptoms; Cohort 1 200 mg QD,1 (6%) participants
same,"self-reported symptom activity maximal improvement 1, participants (%)",cGVHD symptoms; Cohort 1 200 mg QD,0 (0%) participants
same,"self-reported symptom activity maximal improvement 2, participants (%)",cGVHD symptoms; Cohort 1 200 mg QD,0 (0%) participants
same,"self-reported symptom activity maximal improvement 4, participants (%)",cGVHD symptoms; Cohort 1 200 mg QD,1 (6%) participants
same,"self-reported symptom activity maximal improvement from baseline −8, participants (%)",cGVHD symptoms; Cohort 1 200 mg QD,0 (0%) participants
same,"self-reported symptom activity maximal improvement −1, participants (%)",cGVHD symptoms; Cohort 1 200 mg QD,2 (12%) participants
same,"self-reported symptom activity maximal improvement −2, participants (%)",cGVHD symptoms; Cohort 1 200 mg QD,2 (12%) participants
same,"self-reported symptom activity maximal improvement −3, participants (%)",cGVHD symptoms; Cohort 1 200 mg QD,2 (12%) participants
same,"self-reported symptom activity maximal improvement −4, participants (%)",cGVHD symptoms; Cohort 1 200 mg QD,2 (12%) participants
same,"self-reported symptom activity maximal improvement −5, participants (%)",cGVHD symptoms; Cohort 1 200 mg QD,2 (12%) participants
same,"self-reported symptom activity maximal improvement −6, participants (%)",cGVHD symptoms; Cohort 1 200 mg QD,0 (0%) participants
same,"self-reported symptom activity maximal improvement −7, participants (%)",cGVHD symptoms; Cohort 1 200 mg QD,3 (18%) participants
same,"self-reported symptom activity maximal improvement 0, participants (%)",cGVHD symptoms; Cohort 2 200 mg BID,1 (6%) participants
same,"self-reported symptom activity maximal improvement 1, participants (%)",cGVHD symptoms; Cohort 2 200 mg BID,0 (0%) participants
same,"self-reported symptom activity maximal improvement 2, participants (%)",cGVHD symptoms; Cohort 2 200 mg BID,1 (6%) participants
same,"self-reported symptom activity maximal improvement 4, participants (%)",cGVHD symptoms; Cohort 2 200 mg BID,0 (0%) participants
same,"self-reported symptom activity maximal improvement from baseline −8, participants (%)",cGVHD symptoms; Cohort 2 200 mg BID,0 (0%) participants
same,"self-reported symptom activity maximal improvement −1, participants (%)",cGVHD symptoms; Cohort 2 200 mg BID,2 (13%) participants
same,"self-reported symptom activity maximal improvement −2, participants (%)",cGVHD symptoms; Cohort 2 200 mg BID,3 (19%) participants
same,"self-reported symptom activity maximal improvement −3, participants (%)",cGVHD symptoms; Cohort 2 200 mg BID,2 (13%) participants
same,"self-reported symptom activity maximal improvement −4, participants (%)",cGVHD symptoms; Cohort 2 200 mg BID,2 (13%) participants
same,"self-reported symptom activity maximal improvement −5, participants (%)",cGVHD symptoms; Cohort 2 200 mg BID,0 (0%) participants
same,"self-reported symptom activity maximal improvement −6, participants (%)",cGVHD symptoms; Cohort 2 200 mg BID,1 (6%) participants
same,"self-reported symptom activity maximal improvement −7, participants (%)",cGVHD symptoms; Cohort 2 200 mg BID,2 (13%) participants
same,"self-reported symptom activity maximal improvement 0, participants (%)",cGVHD symptoms; Cohort 3 400 mg QD,0 (0%) participants
same,"self-reported symptom activity maximal improvement 1, participants (%)",cGVHD symptoms; Cohort 3 400 mg QD,1 (5%) participants
same,"self-reported symptom activity maximal improvement 2, participants (%)",cGVHD symptoms; Cohort 3 400 mg QD,2 (10%) participants
same,"self-reported symptom activity maximal improvement 4, participants (%)",cGVHD symptoms; Cohort 3 400 mg QD,0 (0%) participants
same,"self-reported symptom activity maximal improvement from baseline −8, participants (%)",cGVHD symptoms; Cohort 3 400 mg QD,1 (5%) participants
same,"self-reported symptom activity maximal improvement −1, participants (%)",cGVHD symptoms; Cohort 3 400 mg QD,2 (10%) participants
same,"self-reported symptom activity maximal improvement −2, participants (%)",cGVHD symptoms; Cohort 3 400 mg QD,2 (10%) participants
same,"self-reported symptom activity maximal improvement −3, participants (%)",cGVHD symptoms; Cohort 3 400 mg QD,2 (10%) participants
same,"self-reported symptom activity maximal improvement −4, participants (%)",cGVHD symptoms; Cohort 3 400 mg QD,1 (5%) participants
same,"self-reported symptom activity maximal improvement −5, participants (%)",cGVHD symptoms; Cohort 3 400 mg QD,2 (10%) participants
same,"self-reported symptom activity maximal improvement −6, participants (%)",cGVHD symptoms; Cohort 3 400 mg QD,4 (19%) participants
same,"self-reported symptom activity maximal improvement −7, participants (%)",cGVHD symptoms; Cohort 3 400 mg QD,0 (0%) participants
same,binding to human serum albumin,human serum albumin,99.9%
same,P-gp substrate,P-gp,substrate of P-gp
same,inhibition of CYP1A2,CYP1A2,inhibitor

# Source: patent publication US20260027116A1, “Methods of Treating Chronic Graft-Versus-Host Disease Following Allogeneic Hematopoietic Stem Cell Transplantation” (Kadmon Corporation, LLC, priority 2022, published 2026)
